PubChem BioAssay AID1963834 (Molecular Pharmacology Branch, DTP, NCI, 2024)

Tested on: 873145-292-R-J1-PDC complex spheroid viability
Assay: Anticancer human tumor 873145-292-R-J1-PDC patient-derived renal clear cell carcinoma cell line growth inhibition [POLQ]
Settings: for IC50: curve of first compound; for viability, T/C: stronger effect = lower value
Outline: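 PDC + HUVEC + MSC complex spheroids; POLQ inhibitors ± partner drugs; top conc. at/near clinical Cmax, else 10 microM (SN-38 1 microM), half-log dilutions; 37 degrees C, 5% CO2.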
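Note: spheroids exposed to compounds for 7 days before viability readout.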
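Throughout, for viability, T/C: luminescence signal used as surrogate for viable cell content; 100% = DMSO vehicle control viability.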

Question: Which results are given for `CC(=O)O[C@H]1C(=O)[C@@]2(C)[C@H]([C@H](OC(=O)c3ccccc3)[C@]3(O)C[C@H](OC(=O)[C@H](O)[C@@H](NC(=O)c4ccccc4)c4ccccc4)C(C)=C1C3(C)C)[C@]1(OC(C)=O)CO[C@@H]1C[C@@H]2O` + Nc1ccc(C#CCN(C(=O)Cc2ncc(C(F)(F)F)cc2C(F)(F)F)c2ccc(F)cc2)nn1?
Answer: IC50 (second compound 0.0316 µM): > 3 µM; IC50 (second compound 0.1 µM): > 3 µM; IC50 (second compound 0.316 µM): > 3 µM; IC50 (second compound 1 µM): > 3 µM; IC50 (second compound 3.16 µM): > 3 µM; IC50 (second compound 10 µM): > 3 µM; viability, T/C (second compound 0.0316 µM, first compound 0.00949 µM): 89.1%; viability, T/C (second compound 0.0316 µM, first compound 0.03 µM): 85.9%; viability, T/C (second compound 0.0316 µM, first compound 0.0949 µM): 79.5%; viability, T/C (second compound 0.0316 µM, first compound 0.3 µM): 72.9%; viability, T/C (second compound 0.0316 µM, first compound 0.949 µM): 67.6%; viability, T/C (second compound 0.0316 µM, first compound 3 µM): 71.2%; viability, T/C (second compound 0.1 µM, first compound 0.00949 µM): 85.4%; viability, T/C (second compound 0.1 µM, first compound 0.03 µM): 90.2%; viability, T/C (second compound 0.1 µM, first compound 0.0949 µM): 71.8%; viability, T/C (second compound 0.1 µM, first compound 0.3 µM): 68.3%; viability, T/C (second compound 0.1 µM, first compound 0.949 µM): 68.8%; viability, T/C (second compound 0.1 µM, first compound 3 µM): 65%; viability, T/C (second compound 0.316 µM, first compound 0.00949 µM): 90.3%; viability, T/C (second compound 0.316 µM, first compound 0.03 µM): 84.6%; viability, T/C (second compound 0.316 µM, first compound 0.0949 µM): 68.1%; viability, T/C (second compound 0.316 µM, first compound 0.3 µM): 68.8%; viability, T/C (second compound 0.316 µM, first compound 0.949 µM): 66.9%; viability, T/C (second compound 0.316 µM, first compound 3 µM): 62.8%; viability, T/C (second compound 1 µM, first compound 0.00949 µM): 85.2%; viability, T/C (second compound 1 µM, first compound 0.03 µM): 71.5%; viability, T/C (second compound 1 µM, first compound 0.0949 µM): 72.7%; viability, T/C (second compound 1 µM, first compound 0.3 µM): 70.7%; viability, T/C (second compound 1 µM, first compound 0.949 µM): 70.7%; viability, T/C (second compound 1 µM, first compound 3 µM): 68.7%; viability, T/C (second compound 3.16 µM, first compound 0.00949 µM): 87%; viability, T/C (second compound 3.16 µM, first compound 0.03 µM): 73.7%; viability, T/C (second compound 3.16 µM, first compound 0.0949 µM): 72.3%; viability, T/C (second compound 3.16 µM, first compound 0.3 µM): 72.3%; viability, T/C (second compound 3.16 µM, first compound 0.949 µM): 71.8%; viability, T/C (second compound 3.16 µM, first compound 3 µM): 69%; viability, T/C (second compound 10 µM, first compound 0.00949 µM): 81.1%; viability, T/C (second compound 10 µM, first compound 0.03 µM): 75.5%; viability, T/C (second compound 10 µM, first compound 0.0949 µM): 74.8%; viability, T/C (second compound 10 µM, first compound 0.3 µM): 67.1%; viability, T/C (second compound 10 µM, first compound 0.949 µM): 65.7%; viability, T/C (second compound 10 µM, first compound 3 µM): 74%
